The numbers were not newly measured in patent US20110290119A1, “ANTIMICROBIAL ELECTRET WEB” (3M Innovative Properties Company, priority 2009, published 2011), which cites them from elsewhere.

The test system of this series is Ps. aeruginosa (gram negative). The conditions noted are these: known.

In the case of `O=C1OC2(c3cc(I)c(O)c(I)c3Oc3c2cc(I)c(O)c3I)c2c(Cl)c(Cl)c(Cl)c(Cl)c21` [rose bengal, 4,5,6,7-Tetrachloro-3′,6′-dihydroxy-2′,4′,5′,7′-tetraiodo-3H-spiro[isobenzofuran-1,9′-xanthen]-3-one], the microbial load reduction entry is “not particularly effective”.
